Tests used:
[1] = tested on: human platelet rich plasma; experiment: Inhibition of ADP-stimulated platelet aggregation in fresh human platelet rich plasma (Born aggregometer); type: cell-based; settings: for Inhibition of platelet aggregation x PGE1: relative potency with respect to PGE1, 1 minute incubation at 37°C, ADP 2 to 5 µM; for activity (anti-platelet-aggregation) times that of PGE1: summary values given in the description
Description: Aggregation of platelets in […] of fresh human platelet. rich plasma (PRP) was monitored in a Born aggregometer.
The compound to be tested was added to the PRP at the desired concentration, and the resulting mixture incubated at 37°C for 1 minute after which platelet aggregation was stimulated by the addition of adenosine diphosphate (ADR) in a concentration just causing maximal aggregation (2 to 5 µM).
The anti-aggregatory effect of the compound was assessed by measuring the percentage inhibition of platelet aggregation in the presence of the compound as compared with when it was completely absent.

blood platelets = experiment: Aggregation tests on rabbits (combination with phosphodiesterase inhibitor); type: in vivo; settings: dipyridamole combined with the (5S,3R) isomer

SMILES | anti-platelet-aggregation inhibitory effect relative to the activity of the corresponding racemate ([1]; compared with racemate of (5S,3R) and (5R,3S) isomers) | Inhibition of platelet aggregation x PGE1 ([1]; first of two experiments) | Inhibition of platelet aggregation x PGE1 ([1]; second of two experiments) [x PGE1] | activity (anti-platelet-aggregation) times that of PGE1 [1] | IC50 ([1]; inhibition of platelet aggregation, human PRP) [µg/mL] | potentiation of the anti-aggregatory effect of the active compound ([1]; dipyridamole combined with the (5S,3R) isomer, human platelet rich plasma) | potentiation of the anti-aggregatory effect of the active compound (blood platelets)
O=C(O)CCCCCC[C@H]1C(=O)NC(=O)N1CC[C@@H](O)C1CCCCC1 [[(5S),(3R)], (5S)-5-(6-carboxyhexyl)-1-[(3R)-3-cyclohexyl-3-hydroxypropyl] hydantoin] | at least twice | 83 x PGE1 | 47 | ~40 times that of PGE1 | – | – | –
O=C(O)CCCCCC[C@@H]1C(=O)NC(=O)N1CC[C@@H](O)C1CCCCC1 [[(5R),(3R)], (5R)-5-(6-carboxyhexyl)-1-[(3R) - 3-cyclohexyl 3-hydroxypropyl] hydantoin] | – | 0.05 x PGE1 | 0.04 | 0.05 times that of PGE1 | – | – | –
O=C(O)CCCCCC[C@@H]1C(=O)NC(=O)N1CC[C@H](O)C1CCCCC1 [[(5R),(3S)], (5R)-5-(6-carboxyhexyl)-1-[(3S)-3-cyclohexyl-3-hydroxypropyl]hydantoin] | – | inactive | – | inactive | > 2 | – | –
O=C(O)CCCCCC[C@H]1C(=O)NC(=O)N1CC[C@H](O)C1CCCCC1 [[(5S),(3S)], (5S)-5-(6-carboxyhexyl)-1-[(3S)-3-cyclohexyl-3-hydroxypropyl]hydantoin] | – | 0.07 x PGE1 | 0.05 | 0.06 times that of PGE1 | – | – | –
OCCN(CCO)c1nc(N2CCCCC2)c2nc(N(CCO)CCO)nc(N3CCCCC3)c2n1 [dipyridamole, 2,2',2",2'"-(4,8-dipiperidinopy-rimido [5,4-d]pyrimidine-2,6-diyldinitrilo)tetraethanol, reference compound] | – | – | – | – | – | potentation of the anti-aggregatory effect | potentation of the anti-aggregatory effect
